# Target: T1, topo IIα (Topo II) (Homo sapiens, UniProt P11388)
# T1 construct: gene TOP2A
# Test: cell-free supercoiled pHOT1 plasmid DNA relaxation assay
# Assay type: biochemical
# T1 sequence (P11388 whole entry): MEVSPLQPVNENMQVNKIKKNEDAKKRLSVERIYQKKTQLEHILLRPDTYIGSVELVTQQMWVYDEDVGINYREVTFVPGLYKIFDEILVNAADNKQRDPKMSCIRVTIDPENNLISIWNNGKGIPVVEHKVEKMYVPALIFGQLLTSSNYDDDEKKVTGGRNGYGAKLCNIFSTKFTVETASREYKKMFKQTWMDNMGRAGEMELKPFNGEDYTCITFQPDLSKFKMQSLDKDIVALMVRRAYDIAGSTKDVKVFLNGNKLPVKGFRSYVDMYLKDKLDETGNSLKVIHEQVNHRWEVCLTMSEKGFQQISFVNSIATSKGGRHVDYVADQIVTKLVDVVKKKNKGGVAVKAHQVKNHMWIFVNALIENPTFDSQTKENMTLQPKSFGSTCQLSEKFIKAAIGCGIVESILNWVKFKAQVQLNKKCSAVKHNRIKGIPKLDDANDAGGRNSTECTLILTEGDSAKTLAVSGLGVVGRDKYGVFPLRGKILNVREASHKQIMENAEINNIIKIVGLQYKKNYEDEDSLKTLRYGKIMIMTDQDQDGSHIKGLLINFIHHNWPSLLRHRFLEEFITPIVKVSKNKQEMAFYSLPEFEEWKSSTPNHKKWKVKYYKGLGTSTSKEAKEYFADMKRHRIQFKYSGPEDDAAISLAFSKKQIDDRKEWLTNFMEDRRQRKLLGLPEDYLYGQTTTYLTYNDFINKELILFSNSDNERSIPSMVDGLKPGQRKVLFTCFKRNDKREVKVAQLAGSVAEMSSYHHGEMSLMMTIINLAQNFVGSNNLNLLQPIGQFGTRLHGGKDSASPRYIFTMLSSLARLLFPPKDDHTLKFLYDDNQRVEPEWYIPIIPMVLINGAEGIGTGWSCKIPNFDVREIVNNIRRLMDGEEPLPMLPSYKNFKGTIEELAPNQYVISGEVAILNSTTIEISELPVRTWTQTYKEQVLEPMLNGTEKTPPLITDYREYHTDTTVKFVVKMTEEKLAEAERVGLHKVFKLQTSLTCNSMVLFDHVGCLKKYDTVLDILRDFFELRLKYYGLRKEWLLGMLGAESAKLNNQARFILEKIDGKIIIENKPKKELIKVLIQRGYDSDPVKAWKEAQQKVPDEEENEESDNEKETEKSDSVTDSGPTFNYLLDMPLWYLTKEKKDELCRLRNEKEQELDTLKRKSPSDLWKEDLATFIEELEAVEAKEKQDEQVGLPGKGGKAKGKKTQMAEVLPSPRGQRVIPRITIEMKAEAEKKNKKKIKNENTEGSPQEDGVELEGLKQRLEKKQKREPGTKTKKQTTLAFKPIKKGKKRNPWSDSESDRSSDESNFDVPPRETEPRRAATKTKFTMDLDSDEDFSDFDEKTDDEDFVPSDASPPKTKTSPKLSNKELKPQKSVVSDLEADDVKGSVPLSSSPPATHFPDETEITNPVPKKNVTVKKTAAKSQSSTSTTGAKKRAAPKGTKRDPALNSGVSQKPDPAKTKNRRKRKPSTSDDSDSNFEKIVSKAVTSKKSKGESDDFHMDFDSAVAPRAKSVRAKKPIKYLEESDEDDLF
structure (smiles),measurement,value
"C[C@@]12CCCc3coc(c31)C(=O)c1cc3c(cc12)C(=O)C=CC3=O [XQ, xestoquinone]",IC50,94 nM
